Consider 18 compounds from ChEMBL document CHEMBL5104232, “Pyrazolines as potential anti-Alzheimer's agents: DFT, molecular docking, enzyme inhibition and pharmacokinetic studies” (RSC Med Chem, 2022).

The nature of series [1]: Apparent permeability of compound across gastrointestinal tract mimic in PBS buffer incubated for 5 hrs by PAMPA assay based HPLC analysis. In kind it is ADME. A general note: In PAMPA a lipid-coated filter parts donor from acceptor wells.
For another series, the target named is Acetylcholinesterase (Homo sapiens, UniProt P22303).
Acetylcholinesterase, sequence (P22303 whole entry): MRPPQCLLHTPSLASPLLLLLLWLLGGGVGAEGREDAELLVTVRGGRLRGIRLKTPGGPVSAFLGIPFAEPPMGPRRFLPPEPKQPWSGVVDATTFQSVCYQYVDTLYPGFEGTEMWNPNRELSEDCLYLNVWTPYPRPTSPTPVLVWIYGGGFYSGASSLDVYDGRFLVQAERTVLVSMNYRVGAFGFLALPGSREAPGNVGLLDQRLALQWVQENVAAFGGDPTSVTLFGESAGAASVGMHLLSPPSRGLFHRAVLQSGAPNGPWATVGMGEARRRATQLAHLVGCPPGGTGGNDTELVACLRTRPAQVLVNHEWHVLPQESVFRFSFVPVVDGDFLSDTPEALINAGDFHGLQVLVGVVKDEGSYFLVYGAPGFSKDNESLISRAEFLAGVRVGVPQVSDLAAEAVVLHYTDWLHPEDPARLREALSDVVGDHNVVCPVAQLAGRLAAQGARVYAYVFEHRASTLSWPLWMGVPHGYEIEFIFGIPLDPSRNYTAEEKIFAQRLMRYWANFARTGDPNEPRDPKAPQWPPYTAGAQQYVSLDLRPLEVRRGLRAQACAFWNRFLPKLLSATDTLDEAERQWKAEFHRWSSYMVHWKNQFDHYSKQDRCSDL
Series [2] in a line: Apparent permeability of compound across gastrointestinal tract mimic in PBS buffer as membrane retention incubated for 5 hrs by PAMPA assay based HPLC analysis. In kind it is ADME.

Description for Acetylcholinesterase: Inhibition of human acetylcholinesterase using acetylthiocholine iodide as substrate incubated for 15 mins by Ellman's method

For orientation: Papp means the rate of passage across a membrane or cell layer, normalised by area and donor concentration. As usually defined, the IC50 is the concentration needed to halve the response being measured. A high value points to weaker potency. For `COc1ccc(C2CC(c3ccc(-c4ccccc4)cc3)=NN2C(C)=O)cc1OC` (centres undefined), the apparent permeability coefficient (Papp) at 5 h in series [1] came to 9.02 ×10⁻⁶ cm/s. Half-maximal inhibition against Acetylcholinesterase (IC50) required 1430 µM. In addition, the Activity in series [2] is 9.2%.
For `CC(=O)N1N=C(c2ccc(-c3ccccc3)cc2)CC1c1ccccc1` (centres undefined), the Papp at 5 h in series [1] stood at 9.15 ×10⁻⁶ cm/s. Moreover, the 50% inhibitory concentration (IC50) against Acetylcholinesterase amounted to 1330 µM. Further, in series [2], the Activity is 30.7%.
The like results for `CC(=O)N1N=C(c2ccc(-c3ccccc3)cc2)CC1c1ccc(C(=O)O)cc1` (centres undefined) were, in that order, 2.13 ×10⁻⁶ cm/s, 1540 µM and 15%.
The like results for `CC(=O)N1N=C(c2ccc(-c3ccccc3)cc2)CC1c1cccc([N+](=O)[O-])c1` (centres undefined) were, in that order, 9.42 ×10⁻⁶ cm/s, 1030 µM and 27.7%.
On the same counts, the results for `CC(=O)N1N=C(c2ccc(Br)cc2)CC1c1ccc(-c2ccccc2)cc1` (centres undefined) are 4.9 ×10⁻⁶ cm/s, 0.903 µM and 49%.
As for `CC(=O)N1N=C(c2ccc(-c3ccccc3)cc2)CC1c1ccccc1[N+](=O)[O-]` (centres undefined), in series [1], the Papp at 5 h came to 6.9 ×10⁻⁶ cm/s. The concentration for half-maximal inhibition (IC50) against Acetylcholinesterase was 0.64 µM. Moreover, the Activity in series [2] was 47.6%.
Turning to `CC(=O)N1N=C(c2ccc(-c3ccccc3)cc2)CC1c1ccc([N+](=O)[O-])cc1` (centres undefined), in series [1], the apparent permeability (Papp) at 5 h stood at 7.85 ×10⁻⁶ cm/s. At Acetylcholinesterase, this compound showed a 50% inhibitory concentration (IC50) of 1560 µM. Further, the Activity in series [2] is on record as 32.6%.
As for `COc1ccc(C2=NN(C(C)=O)C(c3ccc(-c4ccccc4)cc3)C2)c(OC)c1` (centres undefined), the apparent permeability coefficient (Papp) at 5 h in series [1] came to 1 ×10⁻⁶ cm/s. The same compound displayed an IC50 against Acetylcholinesterase of 1130 µM. Also, the Activity in series [2] was 18.4%.
On the same counts, the results for `COc1cc(C2=NN(C(C)=O)C(c3ccc(-c4ccccc4)cc3)C2)cc(OC)c1OC` (centres undefined) are 7.89 ×10⁻⁶ cm/s, 1950 µM and 9.5%.
The like results for `CC(=O)N1N=C(c2ccc3c(c2)OCO3)CC1c1ccc(-c2ccccc2)cc1` (centres undefined) were, in that order, 8.44 ×10⁻⁶ cm/s, 0.913 µM and 17%.
The like results for `CC(=O)N1N=C(c2cccc3ccccc23)CC1c1ccc(-c2ccccc2)cc1` (centres undefined) were, in that order, 5.47 ×10⁻⁶ cm/s, 1010 µM and 35.8%.
For the compound `CC(=O)N1N=C(c2ccc3ccccc3c2)CC1c1ccc(-c2ccccc2)cc1` (centres undefined), the Papp at 5 h in series [1] was 4.43 ×10⁻⁶ cm/s. This compound also yielded an IC50 at Acetylcholinesterase of 0.068 µM. Besides, in series [2], the Activity is listed as 56.9%.
The like results for `CC(=O)N1N=C(c2ccc(-c3ccccc3)cc2)CC1c1ccc2c(c1)OCO2` (centres undefined) were, in that order, 8.75 ×10⁻⁶ cm/s, 0.988 µM and 33.7%.
Consider `CC(=O)N1N=C(c2ccc(C)cc2)CC1c1ccc(-c2ccccc2)cc1` (centres undefined), for which the Papp at 5 h in series [1] stood at 4.27 ×10⁻⁶ cm/s. The same compound showed an IC50 against Acetylcholinesterase of 0.845 µM. In addition, in series [2], the Activity is on record as 44.3%.
Take `CC(=O)N1N=C(c2ccccc2[N+](=O)[O-])CC1c1ccc(-c2ccccc2)cc1` (centres undefined): the Papp at 5 h in series [1] came out at 1.22 ×10⁻⁶ cm/s. This compound also came in with a 50% inhibitory concentration (IC50) on Acetylcholinesterase of 0.052 µM. Also, the Activity in series [2] is listed as 6.6%.
`COc1ccc(OC)c(C2=NN(C(C)=O)C(c3ccc(-c4ccccc4)cc3)C2)c1` (centres undefined): in series [1], the apparent permeability coefficient (Papp) at 5 h was found to be 6.87 ×10⁻⁶ cm/s. Also, 1700 µM corresponded to half-maximal inhibition against Acetylcholinesterase (IC50). The Activity in series [2] was 36.2%.
The like results for `CC(=O)N1N=C(c2ccc(-c3ccccc3)cc2)CC1c1ccc2ccccc2c1` (centres undefined) were, in that order, 3.36 ×10⁻⁶ cm/s, 0.799 µM and 59.7%.
On the same counts, the results for `COc1ccc(OC)c(C2CC(c3ccc(-c4ccccc4)cc3)=NN2C(C)=O)c1` (centres undefined) are 6.94 ×10⁻⁶ cm/s, 1420 µM and 38.3%.
